From ChEMBL document CHEMBL4495565, “Cytopathic SARS-Cov2 screening on VERO-E6 cells in a large repurposing effort” (2020)
Where “and” joins values, the source holds several entries; their conditions need not be identical. Identical values can stand only once. Counter-ions that a name gives are not always drawn. Peptide text beside a SMILES is read from it. * marks the point of attachment. Cbz = O=C(OCc1ccccc1)*

Columns and labels:
SARS-CoV-2 [1] = test: microbe, parasite or virus in culture; assay type: functional, organism-based, Chlorocebus sabaeus, Vero C1008
Vero C1008 = settings: chlorocebus sabaeus, vero c1008, 48 h
in vitro = settings: chlorocebus sabaeus, VERO-E6 cells (Vero C1008), uninfected, CC50
SARS-CoV-2 [2] = settings: Chlorocebus sabaeus; Vero C1008; 10 uM
[3] = Severe acute respiratory syndrome coronavirus 2, Vero C1008, 48 h

| Compound | IC50 (SARS-CoV-2 [1]; [3]) | IC50 (SARS-CoV-2 [1]; vero c1008) | CC50 (Vero C1008) | CC50 at 48 h (in vitro) | inhibition (SARS-CoV-2 [2]) |
| --- | --- | --- | --- | --- | --- |
| COc1ccc(-c2cc3c(C)nc(N)nc3n([C@H]3CC[C@H](OCCO)CC3)c2=O)cn1 [PF-04691502] | 0.55 µM | 0.8 µM | 0.32 µM and 0.09 µM |  |  |
| CC(C)C[C@@H](C=O)NC(=O)[C@H](CC(C)C)NC(=O)[C@H](CC(C)C)NC(=O)OCc1ccccc1 [MG-132] (Cbz-Leu-Leu-Leu-aldehyde) |  | 0.99 µM | 3.04 µM | 2.9 µM |  |
| CNCc1ccc(-c2cc(-c3nc(-c4ccc(S(=O)(=O)C(C)C)cc4)cnc3N)on2)cc1 [BERZOSERTIB] |  | 3.54 µM | 10 µM and > 33 µM |  |  |
| O=C(c1c2ccccc2cc2ccccc12)N1CCC(N2CCC[C@@H](C(=O)N3CCOCC3)C2)CC1 |  |  | 10.9 µM | 10.2 µM |  |
| Cc1cc(Nc2cc(N3CCN(C)CC3)nc(Sc3ccc(NC(=O)C4CC4)cc3)n2)n[nH]1 |  |  |  |  | 0.28% |
| CC(=O)[C@]1(O)Cc2c(O)c3c(c(O)c2[C@@H](O[C@H]2C[C@H](N)[C@H](O)[C@H](C)O2)C1)C(=O)c1ccccc1C3=O [IDARUBICIN] |  |  | 0.2 µM |  |  |
| VANADATE ION |  |  |  |  | 0.02% |
| COLISTIMETHATE SODIUM |  |  |  |  | -0.25% |
| COc1cc2c(NC3CCN(C4CCCCC4)CC3)nc(N3CCCN(C(C)C)CC3)nc2cc1OCCCN1CCCCC1 |  | > 33 µM | 18.6 µM | > 33 µM |  |
| CC(=O)[C@]1(O)Cc2c(O)c3c(c(O)c2[C@@H](O[C@H]2C[C@H](N)[C@H](O)[C@H](C)O2)C1)C(=O)c1ccccc1C3=O [IDARUBICIN HYDROCHLORIDE] |  |  | 0.41 µM |  |  |
| CNC(=O)c1cc(Oc2ccc(NC(=O)Nc3ccc(Cl)c(C(F)(F)F)c3)c(F)c2)ccn1 [REGORAFENIB] | > 33 µM | 24.9 µM | > 33 µM and 8.31 µM |  |  |
| Nc1nc2nn[nH]c2c(=O)[nH]1 [8-AZAGUANINE] |  | 3.72 µM and 10.3 µM | 11.2 µM | 10.4 µM |  |
| CC(C)(C)c1cc(C=C(C#N)C#N)cc(C(C)(C)C)c1O [TYRPHOSTIN A9] |  | > 33 µM | 7.99 µM and 1.27 µM |  |  |
| GADOTERIDOL |  |  |  |  | -0.08% |
| Auranofin |  |  |  |  | -0.39% |
| CETRIMONIUM BROMIDE |  |  |  |  | 0.3% |
| AUROTHIOGLUCOSE |  |  |  |  | -0.05% |
